Data as given in patent publication US20180148418A1, “AMIDO-SUBSTITUTED CYCLOHEXANE DERIVATIVES” (Bayer Pharma Aktiengesellschaft, priority 2015, published 2018).
pIC50: −log10 of the molar value.

Tests used:
[1] = system: HEK293 cells cotransfected with the FOP control vector; experiment: HEK293 FOP assay (control reporter with non-functional TCF elements); assay type: cell-based; details: Homo sapiens, 16 hours
Outline: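 Compound series from 50 μM down to 15 nM, prediluted in DMSO then 50-fold into CAFTY buffer (pH 7.4, 2 mM Ca2+, 0.01% BSA), tested alongside TOP cells on a Geneticin-selected HEK293 FOP line whose TCF elements are replaced by a random sequence; recombinant human Wnt-3a applied at 2500-5 ng/ml.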

[2] = molecular target: T1, TNKS2 (Homo sapiens, UniProt Q9H2K2); experiment: TNKS2 Assay B (auto-parsylation, [3H]-NAD+ SPA); assay type: biochemical; details: 6 nM TNKS2, auto-parsylation, over night at room temperature
T1 construct: purchased BPS Bioscience, San Diego, USA 80572 (TNKS2 Histone Ribosylation Assay Kit)
T1 sequence (Q9H2K2 1-1166): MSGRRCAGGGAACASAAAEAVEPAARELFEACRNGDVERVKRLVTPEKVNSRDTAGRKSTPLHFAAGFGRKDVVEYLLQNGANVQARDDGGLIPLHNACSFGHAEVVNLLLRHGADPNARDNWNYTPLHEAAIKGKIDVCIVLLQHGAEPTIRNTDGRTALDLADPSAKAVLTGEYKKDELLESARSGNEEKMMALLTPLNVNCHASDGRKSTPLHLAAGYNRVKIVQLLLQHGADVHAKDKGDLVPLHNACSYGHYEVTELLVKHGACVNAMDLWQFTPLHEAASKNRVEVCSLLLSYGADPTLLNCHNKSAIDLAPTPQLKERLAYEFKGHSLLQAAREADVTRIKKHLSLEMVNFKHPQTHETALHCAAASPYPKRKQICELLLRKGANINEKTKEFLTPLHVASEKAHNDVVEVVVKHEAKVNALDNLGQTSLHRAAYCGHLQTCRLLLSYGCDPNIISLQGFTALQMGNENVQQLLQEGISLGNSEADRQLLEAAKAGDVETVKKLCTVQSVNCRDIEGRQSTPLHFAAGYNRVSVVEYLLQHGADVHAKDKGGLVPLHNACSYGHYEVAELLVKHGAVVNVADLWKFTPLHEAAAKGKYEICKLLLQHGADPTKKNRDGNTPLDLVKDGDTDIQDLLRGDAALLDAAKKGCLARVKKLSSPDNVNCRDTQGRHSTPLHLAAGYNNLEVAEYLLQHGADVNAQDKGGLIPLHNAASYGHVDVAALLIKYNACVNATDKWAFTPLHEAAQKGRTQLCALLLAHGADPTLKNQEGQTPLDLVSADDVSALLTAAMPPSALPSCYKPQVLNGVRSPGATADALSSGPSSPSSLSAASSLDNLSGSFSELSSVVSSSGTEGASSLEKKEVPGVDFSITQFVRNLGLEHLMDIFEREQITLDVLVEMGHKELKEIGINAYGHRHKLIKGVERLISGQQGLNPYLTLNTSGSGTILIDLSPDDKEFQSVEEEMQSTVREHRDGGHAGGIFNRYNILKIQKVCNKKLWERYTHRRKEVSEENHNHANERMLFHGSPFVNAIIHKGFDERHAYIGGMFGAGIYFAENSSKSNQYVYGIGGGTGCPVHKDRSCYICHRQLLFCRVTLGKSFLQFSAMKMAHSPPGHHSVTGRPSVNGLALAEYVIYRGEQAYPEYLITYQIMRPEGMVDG

Structure (SMILES) | pIC50 [1] | pIC50 [2]
Cc1cc(N2CC[C@]3(CC[C@@H](NC(=O)c4cnc5cccnn45)CC3)C2=O)c(Cl)cc1F [Example 265, N-[(trans)-2-(2-chloro-4-fluoro-5-methylphenyl)-1-oxo-2-azaspiro[4.5]dec-8-yl]imidazo[1,2-b]pyridazine-3-carboxamide] | ≤ 4.30 | 8.32
Cc1cc(C)n2ncc(C(=O)N[C@H]3CC[C@@]4(CCN(c5cc(C)c(F)cc5Cl)C4=O)CC3)c2n1 [Example 266, N-[(trans)-2-(2-chloro-4-fluoro-5-methylphenyl)-1-oxo-2-azaspiro[4.5]dec-8-yl]-5,7-dimethylpyrazolo[1,5-a]pyrimidine-3-carboxamide] | ≤ 4.30 | 8.17
Cc1cc(N2CC[C@]3(CC[C@@H](NC(=O)c4cnn5cccnc45)CC3)C2=O)c(Cl)cc1F [Example 267, N-[(trans)-2-(2-chloro-4-fluoro-5-methylphenyl)-1-oxo-2-azaspiro[4.5]dec-8-yl]pyrazolo[1,5-a]pyrimidine-3-carboxamide] | ≤ 4.30 | 8.28
O=C(N[C@H]1CC[C@@]2(CCN(c3cccc(Cl)c3)C2=O)CC1)c1cnn2cccnc12 [Example 268, N-[(trans)-2-(3-chlorophenyl)-1-oxo-2-azaspiro[4.5]dec-8-yl]pyrazolo[1,5-a]pyrimidine-3-carboxamide] | ≤ 4.30 | 6.64
O=C(N[C@H]1CC[C@@]2(CCN(c3cccc(Cl)c3)C2=O)CC1)c1cnc2cccnn12 [Example 269, N-[(trans)-2-(3-chlorophenyl)-1-oxo-2-azaspiro[4.5]dec-8-yl]imidazo[1,2-b]pyridazine-3-carboxamide] | ≤ 4.30 | 6.54
Cc1cc(C)n2ncc(C(=O)N[C@H]3CC[C@@]4(CCN(c5cccc(Cl)c5)C4=O)CC3)c2n1 [Example 270, N-[(trans)-2-(3-chlorophenyl)-1-oxo-2-azaspiro[4.5]dec-8-yl]-5,7-dimethylpyrazolo[1,5-a]pyrimidine-3-carboxamide] | ≤ 4.30 | 6.55
O=C(N[C@H]1CC[C@@]2(CCN(c3ccccc3Cl)C2=O)CC1)c1cnc2cccnn12 [Example 271, N-[(trans)-2-(2-chlorophenyl)-1-oxo-2-azaspiro[4.5]dec-8-yl]imidazo[1,2-b]pyridazine-3-carboxamide] | ≤ 4.30 | 8.23
CNC(=O)c1nc[nH]c1C(=O)N[C@H]1CC[C@@]2(CCN(c3cccc(Cl)c3)C2=O)CC1 [Example 276, N^5-[(trans)-2-(3-chlorophenyl)-1-oxo-2-azaspiro[4.5]dec-8-yl]-N^4-methyl-1H-imidazole-4,5-dicarboxamide] | 4.49 | 7.05
CCNC(=O)c1nc[nH]c1C(=O)N[C@H]1CC[C@@]2(CCN(c3cccc(Cl)c3)C2=O)CC1 [Example 277, N^5-[(trans)-2-(3-chlorophenyl)-1-oxo-2-azaspiro[4.5]dec-8-yl]-N^4-ethyl-1H-imidazole-4,5-dicarboxamide] | 4.51 | 6.82
CC(C)NC(=O)c1nc[nH]c1C(=O)N[C@H]1CC[C@@]2(CCN(c3cccc(Cl)c3)C2=O)CC1 [Example 278, N^5-[(trans)-2-(3-chlorophenyl)-1-oxo-2-azaspiro[4.5]dec-8-yl]-N^4-(propan-2-yl)-1H-imidazole-4,5-dicarboxamide] | ≤ 4.30 | 6.77
O=C(NC1CC1)c1nc[nH]c1C(=O)N[C@H]1CC[C@@]2(CCN(c3cccc(Cl)c3)C2=O)CC1 [Example 279, N^5-[(trans)-2-(3-chlorophenyl)-1-oxo-2-azaspiro[4.5]dec-8-yl]-N^4-cyclopropyl-1H-imidazole-4,5-dicarboxamide] | ≤ 4.30 | 6.77
O=C(N[C@H]1CC[C@@]2(CCN(c3cccc(Cl)c3)C2=O)CC1)c1[nH]cnc1C(=O)N1CC(F)C1 [Example 280, N-[(trans)-2-(3-chlorophenyl)-1-oxo-2-azaspiro[4.5]dec-8-yl]-4-[(3-fluoroazetidin-1-yl)carbonyl]-1H-imidazole-5-carboxamide] | ≤ 4.30 | 7.03
O=C(NCC(F)(F)F)c1nc[nH]c1C(=O)N[C@H]1CC[C@@]2(CCN(c3cccc(Cl)c3)C2=O)CC1 [Example 281, N^5-[(trans)-2-(3-chlorophenyl)-1-oxo-2-azaspiro[4.5]dec-8-yl]-N^4-(2,2,2-trifluoroethyl)-1H-imidazole-4,5-dicarboxamide] | ≤ 4.30 | 6.55
COCCNC(=O)c1nc[nH]c1C(=O)N[C@H]1CC[C@@]2(CCN(c3cccc(Cl)c3)C2=O)CC1 [Example 282, N^5-[(trans)-2-(3-chlorophenyl)-1-oxo-2-azaspiro[4.5]dec-8-yl]-N^4-(2-methoxyethyl)-1H-imidazole-4,5-dicarboxamide] | 5.10 | 6.80
